Measured values as given in patent publication US11260050B2, “Combination of cotinine plus antioxidant for treatment-resistant depression and correction of astrocytes functional deficit induced by depression and other neuropathological” (UNIVERSIDAD SAN SEBASTIAN, priority 2017, dated 2022).

Columns and labels:
[1] = test system: calcineurin A; test: Western blot of calcineurin A in the hippocampus (Example 4); type: in vivo, Mice C57BL/6; settings: conditioned mice after extinction; vs PBS-treated conditioned mice
Protocol: Three-month-old mice (n=5-6/condition) were weighed and assigned to treatment groups. Mice were treated with vehicle or drugs, starting two h after fear conditioning and daily after behavioral testing until euthanasia. Mice received daily treatments with 1. PBS (phosphate buffer saline, pH 7.4) via intranasal; 2. Cotinine (10 mg/ml) dissolved in PBS via intranasal (IN Cot, 24 μl); 3. Krill oil dissolved in PBS, via intranasal (48 mg/ml, 24 μl); 4. Cotinine (10 mg/ml) plus krill oil dissolved in PBS, via intranasal (48 mg/ml, 24 μl); 5. […] The dose of cotinine was ten times lower than the dose of oral cotinine promoting fear extinction in C57BL/6 mice.
After the behavioral testing, mice from all treatment groups were euthanized via cervical dislocation by a well-trained investigator. Brain regions of interest were dissected and stored at −20° C. for protein analyses. Each brain was divided into two parts, left and right hemispheres. […] The protein concentration of the supernatants was measured using the Bio-Rad protein assay (Bio-Rad, Hercules, Calif., USA). […] Membranes were washed with TBST and incubated with HRP-conjugated secondary antibodies (Bio-Rad) for 1 h at RT, washed with TBST and TBS, and images were acquired using My ECL imaging system and analyzed using the NIH Image J software.

[2] = test system: restrained mice; test: Open field test after chronic restraint stress (Example 2); type: in vivo, C57BL/6 male mice; settings: IN cotinine 24 μl of 10 mg/ml daily, RS+PBS 61±19 m
Protocol: Mice between 2-3 months of age after one week of acclimatization were randomly divided into two groups. Stressed mice were subjected to restraint stress. Control (non-restrained) mice were allowed to move freely during this period. After the stress exposure period, mice were divided into three experimental groups: 1) Non-restrained mice treated with vehicle (PBS, pH 7.4) serving as unstressed controls (n=8); 2) Restrained mice (RS) treated with vehicle (n=8); 3), RS mice treated with 24 μl of a cotinine solution (10 mg/ml in PBS, pH 7.4) via intranasal route of administration (n=6). Treatments were administered daily until euthanasia. After two weeks of treatments mice were behaviorally tested and euthanized (FIG. 10) Intranasal delivery was performed as previously described (Hanson and Frey, 2007). Mice at 2-3 months of age were hand-restrained, positioned in a supine position, and administered two 12 μl drops of cotinine solution (10 mg/ml in PBS), or PBS alone, into both nares. […] Mice were individually placed in an uncovered square arena (40 cm×40 cm×35 cm), allowed to freely explore for 30 minutes (min) while monitored with a video tracking software (ANY-Maze®, Stoelting Co., Illinois, USA) under moderate lighting. Several parameters including total distance traveled, speed, and time spent in the center and peripheral zones (20 cm×20 cm) were measured to assess locomotor activity.

[3] = test system: restrained C57BL/6 mice; settings: oral cotinine administered before and continuously to restrained C57BL/6 mice; cited from earlier work
[4] = test system: GFAP; test: GFAP immunofluorescence, morphometric analysis and cell counting in the dentate gyrus (Example 3); type: in vivo, C57BL/6J mice; settings: restrained mice, oral co-treatment; vs vehicle-treated restrained mice
Protocol: Mice after acclimatization and one week of handling were randomly divided into five groups (n=8/condition) and orally treated as follow: 1) control non-restrained mice treated with vehicle (PBS, pH 7.4); 2) restrained mice treated with vehicle; 3), restrained mice treated with a cotinine solution (5 mg/kg in PBS, pH 7.4) via gavage; 4) restrained mice treated with KO (143 mg/kg); 5) restrained mice treated with cotinine plus KO solution. Mice were started with treatments, the first day of restraint and continuously until euthanasia. Treatments were administered at the same time of the day, 30 min before restraint.
For the immunohistochemistry (IHC) and fluorescent IHC (F-IHC) analysis the right hemisphere of each mouse brain was placed in 4% paraformaldehyde in PBS pH 7.4 at 4° C. for 24 h. The tissues were embedded in 2% agarose molds for vibratome sectioning.
For the F-IHC, samples were washes 3 times for 7 min with Tris-buffered saline (TBS), pH 7.8. The primary antibody anti-GFAP (1:50, BioSB) was diluted in diluent buffer, containing TBS supplemented with 1% bovine serum albumin (BSA) and 0.2% Triton X-100, and incubated with the tissue sections overnight (ON) at 4° C. […] The samples were counterstained with Hoechst (1:1000) and mounted with fluorescence mounting medium (Prolong, Invitrogen). […]
In each image, a region of interest (ROI) that represented the dentate gyrus was determined using free-hand drawing. For each ROI, the mean gray values (MGV), representing the area fraction with immunoreactivity for GFAP, were measured. To measure the fluorescence intensity of GFAP immunostaining in the dentate gyrus, maximum intensity projections of confocal z-stacks acquired from sagittal brain sections were converted into 8-bit greyscale images with 256 scales (pixel intensity 0 corresponding to no signal and 255 to maximal signal) by ImageJ software. […] For the GFAP+ cell counting, cell to be counted must had at least half of the cell nucleus visible on the edge of the ROI and cells were not included in the analysis if they were adherent to blood vessel walls.

CN1C(=O)CC[C@H]1c1cccnc1 [Cotinine, (5S)-1-methyl-5-(3-pyridyl) pyrrolidin-2-one]
calcineurin A levels in the hippocampus [1]: significantly different from PBS-treated conditioned mice
distance traveled in the OF test [2]: 49±13 m
depressive-like behavior induced by stress [3]: substantively decreased depressive-like behavior induced by stress
mean gray value (GFAP IR intensity) in the dentate gyrus [4]: significant increase of the IR intensity
number of GFAP+ cells (cell density) in the dentate gyrus [4]: significant increase of cell density
percent area fraction occupied by GFAP+ cells in the dentate gyrus [4]: significant increase in the GFAP+ fraction area
